# From article PMC10895676, “Antiviral Activity of Lipophilic Nucleoside Tetraphosphate Compounds” (Journal of Medicinal Chemistry, 2024)
# Like-named read-outs stand apart in the source and are kept apart here.
# Legend:
# [1] = system: HIV-2 (ROD); assay: Anti-HIV replication assay, HIV-2 (ROD) in thymidine kinase-deficient CEM/TK– cells; format: cell-based; conditions: for selectivity index (SI): CC50/EC50, HIV-2 (ROD) in CEM/TK– cells; for EC50: Human immunodeficiency virus 2, CEM/TK– cells, mean ± SD, n = 2–3, read-out: CEM/TK– HIV-2 (ROD) EC50
# Method: (§1) Inhibition of HIV-1(HE)- and HIV-2(ROD)-induced cytopathogenicity in wild-type CEM/0 CEM CD4^+ T-cells and thymidine kinase-deficient CEM/TK^– cell cultures was measured in microtiter 96-well plates containing ∼3 × 10^5 CEM cells/mL infected with 100 CCID50 of HIV per milliliter and containing appropriate dilutions of the test compounds. After 4–5 days of incubation at 37 °C in a CO2-controlled humidified atmosphere, virus-induced cellular effects and syncytia cell formation were examined microscopically.
# [2] = Hydrolysis in citrate-stabilized human plasma; format: in vitro ADME; conditions: 37 °C, read-out: t1/2 in citrate-stabilized human plasma (converted)
# Method: Finally, the supernatant was divided into aliquots and frozen at −80 °C.
# (§2) Two different samples, including 10 μL of water and 10 μL of 6.0 mM hydrolysis solution, were prepared in 2 mL Eppendorf vials. Next, 50 μL of human CEM cell extracts or 50 μL of human citrate plasma were added to the mixture, the reaction was started, and the mixture was incubated at 37 °C for different time periods. The reactions were stopped by the addition of 150 μL of MeOH. The resulting suspension was kept on ice for 5 min, followed by defrosting and centrifugation at 14,000 rpm (Heraeus, Biofuge Pico) for 22 min. The supernatants (80 or 60 μL) were directly injected into HPLC. The calculation of t1/2 was performed analogously to that for the chemical hydrolysis studies.
# [3] = Chemical hydrolysis in aqueous buffers (PBS pH 7.3 / 8.0, citrate buffer pH 2.0), RP18-HPLC; format: physicochemical; conditions: for half-life at 1.9 mM: phosphate buffered saline
# Method: All metabolite mixtures were analyzed and quantified by means of analytical RP18-HPLC (UV detection).
# The solution was incubated at 37 °C in a thermomixer. […] for each extraction and stored at −30 °C. When testing, samples were warmed up to room temperature, and 25 or 20 μL of the liquid was taken and injected into the analytical RP-18-HPLC instrument. Further aliquots were taken for monitoring the kinetic hydrolysis.
# 5.88 g of citric acid and 3.58 g of NaCl were dissolved in 82 mL of hydrochloric acid (0.1 mol/L). Then, sodium hydroxide was added to adjust the pH to 2.0.
# [4] = Cytotoxicity, inhibition of CEM/TK– cell proliferation; format: cell-based; conditions: human, CEM/TK– cells (CD4+ T-cells), read-out: toxicity CC50
# [5] = Cytotoxicity, inhibition of CEM cell proliferation; format: cell-based; conditions: human, CEM cells (CD4+ T-cells), read-out: toxicity CC50
# [6] = system: pig liver esterase (PLE); assay: Enzymatic hydrolysis with pig liver esterase (PLE); format: in vitro ADME; conditions: pig liver esterase in phosphate buffer, PLE in phosphate buffer pH 7.3, 37 °C, read-out: PLE t1/2 (converted)
# Method: To confirm the enzymatic hydrolysis process, TetraPPPPro-nucleotides 4–9 bearing different kinds of lipophilic groups attached to the δ-phosph(on)ate group were incubated with PLE in phosphate buffer.
# Then, 833 μL of 50 mM phosphate buffer (pH 7.3) and 125 μL of DMSO were added to the 6.0 mM hydrolysis solutions. The reaction was started by addition of 62.5 μL of PLE in phosphate buffer (100 units/mL), and the mixture was incubated at 800 rpm at 37 °C in a thermomixer. (1). At different times, aliquots (75 μL) were taken and stopped by the addition of […] of MeOH. The mixture was stored in liquid nitrogen. When testing, samples were warmed up to room temperature, and 60 μL of the liquid was directly injected into HPLC analysis. (2). 40 μL for each extraction was stored in liquid nitrogen. When testing, samples were warmed up to room temperature, and 30 μL of the liquid was taken and injected into the analytical RP-18-HPLC instrument. The calculation of t1/2 was performed analogously to that for the chemical hydrolysis studies.
# [7] = system: HIV-1 (HE); assay: Anti-HIV replication assay, HIV-1 (HE) in wild-type CEM/0 cells; format: cell-based; conditions: Human immunodeficiency virus 1, CCRF-CEM; wild-type CEM/0 cells; mean ± SD, n = 2–3; read-out: HIV-1 (HE) EC50
# Method: as §1, with “microscopically. The EC50 (50% effective concentration) was defined as the compound concentration required to inhibit HIV-induced giant cell formation by 50%.” for “microscopically.”
# [8] = Hydrolysis in CEM/0 cell extracts; format: in vitro ADME; conditions: human, 37 °C, read-out: CEM/0 cell extracts t1/2 (converted)
# Method: Next, TetraPPPPro-nucleotides 4–9 were incubated in human CD4^+ T-lymphocyte CEM/0 cell extracts to study their stability and identify the hydrolysis products.
# CEM cells were grown in RPMI-1640-based cell culture medium to a final density of ∼3 × 10^6 cells/mL. Cells were centrifuged for 10 min at 1250 rpm at 4 °C and washed twice with cold PBS, and the pellet was resuspended at 10^8 cells/mL and sonicated (Hielscher Ultrasound Techn., 100% amplitude, 3·times for 10 s) to destroy cell integrity. Next, the resulting cell suspension was centrifuged at 10,000 rpm to remove cell debris. Finally, the supernatant was divided into aliquots and frozen at −80 °C.
# as §2, with “6.0 mM hydrolysis solutions of compounds 4–9 were prepared from 21 μL of 50 mM DMSO stock solutions and 154 μL of DMSO. Two” for “Two”
# [9] = system: HIV-2 (ROD); assay: Anti-HIV replication assay, HIV-2 (ROD) in wild-type CEM/0 cells; format: cell-based; conditions: for selectivity index (SI): CC50/EC50, HIV-2 (ROD) in CEM cells; for EC50: Human immunodeficiency virus 2, CCRF-CEM, wild-type CEM/0 cells, mean ± SD, n = 2–3, read-out: HIV-2 (ROD) EC50
# Method: as §1
# [10] = PBS; cited from earlier work
# [11] = system: CD4+ T-cell (CEM); conditions: CEM cell proliferation; read-out: toxicity CC50; cited from earlier work
# [12] = system: HIV-1 (HE); conditions: CEM/0 cells; cited from earlier work
# [13] = system: pig liver esterase (PLE); set-up: method as in PMID 26503889; conditions: cited from earlier work
# [14] = 25 mM PBS, pH 7.3, 37 °C, read-out: PBS pH 7.3 t1/2 (converted)
# [15] = PBS, pH 8.0, 37 °C, read-out: PBS pH 8.0 t1/2 (converted)
EC50 [1],half-life at 0.86 mM [2],"half-life at 1.9 mM [3, 14]",half-life at 0.45 mM [6],EC50 [7],half-life at 0.86 mM [8],EC50 [9],"half-life at 1.9 mM [3, 15]","half-life ([3]; 25 mM citrate buffer, pH 2.0, 37 °C)",SMILES,selectivity index (SI) [1],CC50 [4],CC50 [5],selectivity index (SI) [9],PBS pH 7.3 t1/2 [10],CC50 [11],EC50 [12],PLE t1/2 [13]
4.44 ± 1.54 µM,2.8 h,26 h,0.07 h,0.39 ± 0.16 µM,1.37 h,0.26 ± 0.14 µM,–,–,"CCCCCCCCCC(=O)Oc1ccc(COP(=O)(OCc2ccc(OC(=O)CCCCCCCCC)cc2)OP(=O)(O)OP(=O)(O)OP(=O)(O)OC[C@@H]2C=C[C@H](n3cc(C)c(=O)[nH]c3=O)O2)cc1 [compound 8, δ-(AB-C9; AB-C9)-d4T4P]",11,50 µM,45 µM,173,–,–,–,–
0.29 ± 0.19 µM,–,–,–,0.042 ± 0.02 µM,–,0.066 ± 0.026 µM,68 h,–,"CCCCCCCCCC(=O)Oc1ccc(COP(=O)(OCc2ccc(OC(=O)CCCCCCCCC)cc2)OP(=O)(O)OP(=O)(O)OC[C@@H]2C=C[C@H](n3cc(C)c(=O)[nH]c3=O)O2)cc1 [1a, γ-(AB-C9; AB-C9)-d4TTP, reference compound]",172,50 µM,73.2 µM,1109,44[43] h,–,–,0.082[43] h

# Second part, the compound before the results:
SMILES,EC50 [1],half-life at 0.86 mM [2],"half-life at 1.9 mM [3, 14]",half-life at 0.45 mM [6],EC50 [7],half-life at 0.86 mM [8],EC50 [9],"half-life at 1.9 mM [3, 15]","half-life ([3]; 25 mM citrate buffer, pH 2.0, 37 °C)",selectivity index (SI) [1],CC50 [4],CC50 [5],selectivity index (SI) [9],PBS pH 7.3 t1/2 [10],CC50 [11],EC50 [12],PLE t1/2 [13]
"CCCCCCCCCCCCCCCCCCP(=O)(OCc1ccc(OC(=O)CCCC)cc1)OP(=O)(O)OP(=O)(O)OC[C@@H]1C=C[C@H](n2cc(C)c(=O)[nH]c2=O)O1 (stereo partly shown) [2b, γ-(AB-C4)-γ-C-(C18)-d4TTP]",–,–,–,–,–,–,–,–,–,–,–,–,–,646 h,19 µM,0.0074 ± 0.0014 µM,–
"CCCCCCCCCCCCCCCCCCP(=O)(OCCCC)OP(=O)(O)OP(=O)(O)OC[C@@H]1C=C[C@H](n2cc(C)c(=O)[nH]c2=O)O1 (stereo partly shown) [3b, γ-(alkyl-C4)-γ-C-(alkyl-C18)-d4TTP]",–,–,–,–,–,–,–,–,–,–,–,–,–,> 1700 h,33 µM,–,–
"CCCCCCCCCCCCCCCCCCOP(=O)(OCCCC)OP(=O)(O)OP(=O)(O)OC[C@@H]1C=C[C@H](n2cc(C)c(=O)[nH]c2=O)O1 (stereo partly shown) [3a, γ-(alkyl-C4; alkyl-C18)-d4TTP]",–,–,–,–,–,–,–,–,–,–,–,–,–,–,30 µM,–,–
"CCCCCCCCCCCCCCCCCCOP(=O)(OCc1ccc(OC(=O)CCCC)cc1)OP(=O)(O)OP(=O)(O)OP(=O)(O)OC[C@@H]1C=C[C@H](n2cc(C)c(=O)[nH]c2=O)O1 (stereo partly shown) [compound 6, δ-(AB-C4; alkyl-C18)-d4T4P]",0.059 ± 0.054 µM,2.1 h,77 h,1.06 h,0.083 ± 0.018 µM,6.67 h,0.063 ± 0.032 µM,99 h,27 h,813,48 µM,40.5 µM,643,–,–,–,–
